The values below come from patent publication US20250051338A1, “TYK2 DEGRADERS AND USES THEREOF” (Kymera Therapeutics, Inc., priority 2021, published 2025).

What all share (assay type): cell-based
Assay [1] concerns the target T1, TYK2 (Homo sapiens, UniProt P29597). The assay is described as follows: TYK2 degradation MSD assay in human PBMC cells. The arrangement: endogenous in cells; host or cells: human PBMC. To be noted: 4 to 24 hours incubation, read-out: TYK2 MSD DC50 rating in human PBMC. The procedure, abridged: (§1)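 0.4 million cells/well; cpd 9-dose 1:3 titration, top 1–10 μM; 4–24 h, 37° C, 5% CO2; RIPA lysis; TYK2 capture/detection sandwich on MSD, SULFO-TAG anti-rabbit secondary; DC50 via 4-parameter fit.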

The target in assay [2] is T1, TYK2. Description: TYK2 degradation MSD assay in OCI-LY10 cells. Also noted: endogenous in cells; host or cells: EBV-B cells. Particulars: 4 to 24 hours incubation, read-out: TYK2 MSD DC50 rating in OCI-LY10. The procedure, abridged: as §1
For assay [3], the target named is T1, TYK2. The assay is described as follows: TYK2 degradation MSD assay in EBV-B cells. To be noted: 4 to 24 hours incubation, read-out: TYK2 MSD DC50 rating in EBV-B. The arrangement: endogenous in cells; host or cells: EBV-B cells. The procedure, abridged:
as §1

Each structure is given as a SMILES string.

T1 sequence (P29597 whole entry): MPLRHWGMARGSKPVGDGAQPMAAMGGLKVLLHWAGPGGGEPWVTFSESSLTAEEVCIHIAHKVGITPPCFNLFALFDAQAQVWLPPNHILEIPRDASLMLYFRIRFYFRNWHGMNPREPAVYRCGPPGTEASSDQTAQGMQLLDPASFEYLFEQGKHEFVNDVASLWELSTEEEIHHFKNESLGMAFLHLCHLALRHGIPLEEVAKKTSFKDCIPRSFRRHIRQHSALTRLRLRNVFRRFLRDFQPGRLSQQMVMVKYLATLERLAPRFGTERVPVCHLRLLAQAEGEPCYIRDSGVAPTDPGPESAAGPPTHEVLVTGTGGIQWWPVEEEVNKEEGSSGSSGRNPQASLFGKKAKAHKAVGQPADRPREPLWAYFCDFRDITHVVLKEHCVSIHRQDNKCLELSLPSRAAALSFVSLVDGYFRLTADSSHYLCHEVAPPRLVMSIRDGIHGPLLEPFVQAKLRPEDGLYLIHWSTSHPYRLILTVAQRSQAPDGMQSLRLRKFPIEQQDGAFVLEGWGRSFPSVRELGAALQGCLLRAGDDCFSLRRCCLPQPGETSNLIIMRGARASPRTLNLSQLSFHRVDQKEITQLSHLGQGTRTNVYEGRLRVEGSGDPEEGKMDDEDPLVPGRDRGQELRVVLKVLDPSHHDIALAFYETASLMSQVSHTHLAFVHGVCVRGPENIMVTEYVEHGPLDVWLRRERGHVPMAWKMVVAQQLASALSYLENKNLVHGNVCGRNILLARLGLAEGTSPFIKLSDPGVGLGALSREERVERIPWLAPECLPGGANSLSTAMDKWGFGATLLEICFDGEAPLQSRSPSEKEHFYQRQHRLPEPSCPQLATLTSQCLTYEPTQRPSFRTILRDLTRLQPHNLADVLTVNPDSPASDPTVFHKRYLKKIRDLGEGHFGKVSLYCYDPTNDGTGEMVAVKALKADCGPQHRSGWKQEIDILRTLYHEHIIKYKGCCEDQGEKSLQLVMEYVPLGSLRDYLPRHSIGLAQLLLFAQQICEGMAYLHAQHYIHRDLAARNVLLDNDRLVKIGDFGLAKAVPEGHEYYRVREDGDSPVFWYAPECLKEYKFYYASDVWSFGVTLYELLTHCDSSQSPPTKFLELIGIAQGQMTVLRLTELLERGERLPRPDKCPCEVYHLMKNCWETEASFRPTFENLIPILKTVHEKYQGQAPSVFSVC

In general, DC50 refers to the midpoint of the concentration-degradation curve. In the case of `CCNC(=O)c1cnc(Nc2ccc(C(=O)N(C)C3CCN(c4cccc5c4n(C)c(=O)n5C4CCC(=O)NC4=O)CC3)cn2)cc1Nc1cccc(-c2ncc(F)cn2)c1OC` (stereo not drawn) [Example K169], the figures for the DC50 at TYK2 [1], at TYK2 [2] and on TYK2 [3] were greater than 100 nM, greater than 100 nM and 1 to 10 nM, respectively.
Take `CNC(=O)c1cnc(Nc2ccc(CN(C)C3CCN(c4ccc5c(c4)n(C)c(=O)n5C4CCC(=O)NC4=O)C3)cn2)cc1Nc1cccc(-c2ncc(F)cn2)c1OC` (stereo not drawn) [Example K170]: the values for the DC50 on TYK2 [1], at TYK2 [2] and at TYK2 [3] were greater than 100 nM, greater than 100 nM and less than 1 nM, respectively.
Regarding `CNC(=O)c1cnc(Nc2ccc(CN(C)C3CCN(c4cccc5c4n(C)c(=O)n5C4CCC(=O)NC4=O)C3)cn2)cc1Nc1cccc(-c2ncc(F)cn2)c1OC` (stereo not drawn) [Example K171], the DC50 at TYK2 [1] was greater than 100 nM; on TYK2 [2], greater than 100 nM; at TYK2 [3] it was less than 1 nM.
As for `CNC(=O)c1cnc(Nc2ccc(CN3CCC(c4ccc5c(c4)n(C)c(=O)n5C4CCC(=O)NC4=O)CC3)cn2)cc1Nc1cccc(-c2ncc(F)cn2)c1OC` (stereo not drawn) [Example K172], the DC50 on TYK2 [1] is greater than 100 nM; on TYK2 [2] it was greater than 100 nM; at TYK2 [3] it was less than 1 nM.
Consider `CNC(=O)c1cnc(Nc2ccc(CN3CCN(c4cccc5c4n(C)c(=O)n5C4CCC(=O)NC4=O)CC3)cn2)cc1Nc1cccc(-c2ncc(F)cn2)c1OC` (stereo not drawn) [Example K173], for which the DC50 at TYK2 [1] is greater than 100 nM; on TYK2 [2], greater than 100 nM; on TYK2 [3] it was less than 1 nM.
Consider `CNC(=O)c1cnc(Nc2ccc(C3CCN(Cc4cccc5c4n(C)c(=O)n5C4CCC(=O)NC4=O)CC3)cn2)cc1Nc1cccc(-c2ncc(F)cn2)c1OC` (stereo not drawn) [Example K174], for which the DC50 at TYK2 [1] is greater than 100 nM; at TYK2 [2], greater than 100 nM; at TYK2 [3], 1 to 10 nM.
With `CNC(=O)c1cnc(Nc2ccc(CN3CCC(N(C)c4ccc5c(c4)n(C)c(=O)n5C4CCC(=O)NC4=O)CC3)cn2)cc1Nc1cccc(-c2ncc(F)cn2)c1OC` (stereo not drawn) [Example K175], the DC50 is less than 1 nM at TYK2 [1], greater than 100 nM at TYK2 [2] and less than 1 nM at TYK2 [3].
With `CNC(=O)c1cnc(Nc2cc(CN3CCN(c4cccc5c4n(C)c(=O)n5C4CCC(=O)NC4=O)CC3)ccn2)cc1Nc1cccc(-c2ncc(F)cn2)c1OC` (stereo not drawn) [Example K176], the DC50 at TYK2 [1] is less than 1 nM; at TYK2 [2], greater than 100 nM; at TYK2 [3], 1 to 10 nM.
For `CNC(=O)c1cnc(Nc2ccc(CN3CCN(c4ccc5c(c4)n(C)c(=O)n5C4CCC(=O)NC4=O)CC3)cn2)cc1Nc1cccc(-c2ncc(F)cn2)c1OC` (stereo not drawn) [Example K177] the same measures were less than 1 nM, greater than 100 nM and less than 1 nM.
Regarding `CNC(=O)c1cnc(Nc2ccc(C(=O)N(C)C3CCN(c4ccc5c(c4)n(C)c(=O)n5C4CCC(=O)NC4=O)CC3)cn2)cc1Nc1cccc(-c2ncc(F)cn2)c1OC` (stereo not drawn) [Example K178], the DC50 at TYK2 [1] is less than 1 nM; at TYK2 [2], greater than 100 nM; at TYK2 [3], less than 1 nM.
Turning to `COc1c(Nc2cc(Nc3cc(C(=O)NCCCCc4cccc5c4n(C)c(=O)n5C4CCC(=O)NC4=O)ccn3)ncc2C(=O)NC2CC2)cccc1-c1ncc(F)cn1` (stereo not drawn) [Example K179], the 50% degradation concentration (DC50) on TYK2 [1] is 10 to 100 nM; at TYK2 [2], greater than 100 nM; on TYK2 [3] it was greater than 100 nM.
Turning to `COc1c(Nc2cc(Nc3ccc(C(=O)NCCCCc4cccc5c4n(C)c(=O)n5C4CCC(=O)NC4=O)cn3)ncc2C(=O)NC2CC2)cccc1-c1ncc(F)cn1` (stereo not drawn) [Example K180], the DC50 on TYK2 [1] was 1 to 10 nM; on TYK2 [2], greater than 100 nM; on TYK2 [3] it was 10 to 100 nM.
Turning to `CCNC(=O)c1cnc(Nc2cc(C(=O)NCCCCc3cccc4c3n(C)c(=O)n4C3CCC(=O)NC3=O)ccn2)cc1Nc1cccc(-c2ncc(F)cn2)c1OC` (stereo not drawn) [Example K181], the DC50 was 1 to 10 nM on TYK2 [1], greater than 100 nM on TYK2 [2] and greater than 100 nM on TYK2 [3].
With `CCNC(=O)c1cnc(Nc2ccc(C(=O)NCCCCc3cccc4c3n(C)c(=O)n4C3CCC(=O)NC3=O)cn2)cc1Nc1cccc(-c2ncc(F)cn2)c1OC` (stereo not drawn) [Example K182], the results for the DC50 at TYK2 [1], on TYK2 [2] and on TYK2 [3] were 1 to 10 nM, greater than 100 nM and 10 to 100 nM, respectively.
